Assay results reported in PubChem BioAssay AID467 (The Scripps Research Institute Molecular Screening Center, 2006).
Activity calls are given as the source filed them. The rule behind the calls is not given here.

Test system: parental cell line counter screen, S1P1 agonist assay readout
Test: signal in parental cells, counter-screen for S1P1 agonist project (AID 467);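 note: agonist potency measured against forskolin stimulation plus an EC20 level of SEW2871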

SMILES | EC50
COc1ccccc1-c1nc(-c2cccc(C)c2)no1 | > 95.1 µM (inactive)
Nn1c(Nc2ccccc2)nc2sc3c(c2c1=O)CCC3 | > 30 µM (inactive)
O=C1CC(N2CCN(C/C=C/c3ccccc3)CC2)C(=O)N1CCc1ccccc1 (stereo not given) | > 30 µM (inactive)
Cc1cc(/C=c2/sc3nc4ccccc4n3c2=O)c(C)n1-c1ccccn1 | > 95.1 µM (inactive)
Cc1ccc(C(C)C)c(OCc2ccc(-c3nnco3)cc2)c1 | > 95.1 µM (inactive)
Cc1ccc(S(=O)(=O)n2nc(C)c(Br)c2C)c(C)c1C | > 95.1 µM (inactive)
CCn1nc(-c2ccccc2)nc2c(=O)n(C)c(=O)nc1-2 | 2.09 µM
C=CCN1C(=Nc2cccnc2)SCC1(O)c1ccc(C)cc1 (stereo not given) | 31.9 µM (inactive)
COc1ccc2ncn(-c3ccccc3)c2c1 | > 95.1 µM (inactive)
COc1ccc(-c2nc(-c3ccc(Br)o3)no2)cc1OC | > 95.1 µM (inactive)
CCCc1cc2c(=O)c(-c3ccccn3)coc2cc1OC | > 95.1 µM (inactive)
O=C(c1cc(-c2ccc(O)cc2)on1)N1CCc2ccccc2C1 | > 30 µM (inactive)
CCCC(=O)Nc1ccc(-c2nc3cc(C)c(C)cc3o2)cc1 | > 95.1 µM (inactive)
COc1ccc(-n2nnnc2S(=O)(=O)CC(=O)N2CCCCC2)cc1 | 2.35 µM
Cc1ccc(C)c(-n2nnnc2Sc2nnnn2-c2ccccc2)c1 | 6.91 µM
COc1cccc(NC(=O)Nc2nnc(N3CCCCC3C)s2)c1 (stereo not given) | 40 µM (inactive)
Oc1c(C(c2ccco2)N2CCN(C(c3ccccc3)c3ccccc3)CC2)sc2ncnn12 (stereo not given) | 39.5 µM (inactive)
Cc1cc(C(=O)CSc2nc3ccccc3c(=O)n2C)c(C)n1Cc1ccc2c(c1)OCO2 | 54.9 µM (inactive)
COc1ccccc1-c1cc(C(=O)Nc2cc(C)nn2-c2ccccc2)no1 | > 95.1 µM (inactive)
CCN(CC)S(=O)(=O)c1cccc(S(=O)(=O)c2cccc(S(=O)(=O)N(CC)CC)c2)c1 | > 95.1 µM (inactive)

SMILES | EC50
c1ccc(CSc2nnc(-c3c[nH]c4ccccc34)o2)cc1 | 41.4 µM (inactive)
O=C(Nc1c(F)cc(F)cc1Br)c1cc(-c2ccc(O)cc2)on1 | 53.6 µM (inactive)
Cc1ccccc1-c1noc(-c2ccc(O)cc2)n1 | 25 µM (inactive)
O=C(Nc1nc(-c2nc3ccccc3s2)cs1)c1ccc(S(=O)(=O)N2CCOCC2)cc1 | 27.5 µM (inactive)
O=c1c(-c2ccc3c(c2)OCCO3)c(C(F)(F)F)oc2cc(O)cc(O)c12 | 18.4 µM (inactive)
Cc1nn(Cc2ccc(Cl)cc2)c(C)c1NC(=O)c1cc(-c2ccco2)on1 | 85.2 µM (inactive)
COc1ccc(-c2nc(-c3cccc(C)c3)no2)cc1OC | > 95.1 µM (inactive)
O=S(=O)(NCc1ccncc1)c1ccc(Br)s1 | > 95.1 µM (inactive)
O=C(C1CCCN1S(=O)(=O)c1cccc2cccnc12)N1CCN(c2ccccc2)CC1 (stereo not given) | > 95.1 µM (inactive)
CCc1cc2c(N3CCN(c4ccccc4)CC3)ncnc2s1 | 16.3 µM (inactive)
O=C(CCc1nc(-c2ccccc2F)no1)Nc1ccc(Oc2ccccc2)cc1 | 6.94 µM
COCCn1c(C)cc(C(=O)CSc2nc3ccccc3c(=O)[nH]2)c1C | > 95.1 µM (inactive)
CNc1oc(-c2ccc(OCc3ccccc3)cc2)nc1C#N | > 95.1 µM (inactive)
O=S(=O)(c1cccs1)N1CCN(CC(O)COc2cc(Cl)ccc2Cl)CC1 (stereo not given) | 24.6 µM (inactive)
N#Cc1nc(COc2ccc(Cl)cc2Cl)oc1N1CCN(c2ccccc2)CC1 | > 95.1 µM (inactive)
COc1ccc(-c2nc(-c3ccc(NC(=O)c4ccncc4)cc3)no2)cc1OC | > 30 µM (inactive)
O=C(Cc1c[nH]c2ccccc12)N1CCc2ccccc21 | > 95.1 µM (inactive)
Cc1ccc(C(=O)c2cncc(Br)c2)cc1 | > 95.1 µM (inactive)
COc1ccc(-c2nc(-c3ccccc3OC)no2)cc1OC | > 95.1 µM (inactive)
Cc1ccc(-n2ncc3c(N4CCCC(C)C4)ncnc32)c(C)c1 (stereo not given) | 36.1 µM (inactive)
